Data as given in patent publication US5688938A, “Calcium receptor-active molecules” (priority 1995, dated 1997).
Entries after “also recorded” stand apart in the source; their conditions may differ.

How the values were obtained:
[1] = test system: parathyroid cell calcium receptor; experiment: Cl^- current in Xenopus oocytes injected with (bovine) parathyroid cell mRNA; type: cell-based; settings: 30 μM
Protocol: Following incubation, an oocyte was placed into a 100-μl plastic chamber and superfused with MBS at a flow rate of 0.5 ml/min using a peristaltic pump. Test molecules or inorganic polycations were added by rapidly moving the tubing into different buffers. Recording and current passing electrodes were constructed from thin-wall capillary tubing pulled to a resistance of 1-3 Mohms and filled with 3M KCl. […] Currents were recorded directly onto a strip chart recorder.

[2] = serum ionized Ca^2+ in parathyroidectomized rats; type: in vivo, rat; settings: 10 mg/kg i.p., 6 hours
From the text: To determine the primary target tissue upon which NPS R-467 acts to cause a hypocalcemic response, the parathyroid glands in rats were surgically removed. Animals receiving a total parathyroidectomy become hypocalcemic and are largely dependent upon dietary calcium to maintain serum Ca^2+ homeostasis.

[3] = serum/blood calcium, PTH, albumin and phosphate in rats, intraperitoneal; type: in vivo, rat; settings: 10 mg/kg i.p., 1 hour, normal diet
Protocol: Compounds shown to activate the bovine parathyroid cell calcium receptor in vitro were tested for hypocalcemic activity in vivo. […] […] […] Serum total calcium, albumin and phosphate were measured by techniques well known in the art.

[4] = test system: human parathyroid calcium receptor (HuPCaR 5.2); experiment: intracellular calcium in HEK293 cells transfected with HuPCaR 5.2; type: cell-based; settings: Ca^2+ 10 mM, Mg^2+ 20 mM
Protocol: Cells obtained from the pool of hygromycin selected HEK293 cells transfected with Cep4B containing the HuPCaR 5.2 insert were plated on collagen coated Aklar squares which had been placed into individual wells of 12-well tissue culture plates. Two to six days later, medium was removed and the cells washed with balanced salt solution and 1 ml of buffer containing 1 μM fura2-AM, 1 mM CaCl2 and 0.1% BSA and […]. Measurements of fluorescence in response to calcium receptor agonists were performed at 37° C. in a spectrofluorimeter using excitation and emission wavelengths of 340 and 510 nm, respectively. For signal calibration, Fmax was determined after addition of ionomycin (4.0 μM) and the apparent Fmin was determined by addition of 0.3M EGTA, 2.5M Tris-HCl; pH 10.

[5] = biological target: T1, parathyroid cell calcium receptor (Bos taurus, UniProt P35384); experiment: cell-based; type: cell-based
T1 sequence (P35384 21-1085 limits assumed): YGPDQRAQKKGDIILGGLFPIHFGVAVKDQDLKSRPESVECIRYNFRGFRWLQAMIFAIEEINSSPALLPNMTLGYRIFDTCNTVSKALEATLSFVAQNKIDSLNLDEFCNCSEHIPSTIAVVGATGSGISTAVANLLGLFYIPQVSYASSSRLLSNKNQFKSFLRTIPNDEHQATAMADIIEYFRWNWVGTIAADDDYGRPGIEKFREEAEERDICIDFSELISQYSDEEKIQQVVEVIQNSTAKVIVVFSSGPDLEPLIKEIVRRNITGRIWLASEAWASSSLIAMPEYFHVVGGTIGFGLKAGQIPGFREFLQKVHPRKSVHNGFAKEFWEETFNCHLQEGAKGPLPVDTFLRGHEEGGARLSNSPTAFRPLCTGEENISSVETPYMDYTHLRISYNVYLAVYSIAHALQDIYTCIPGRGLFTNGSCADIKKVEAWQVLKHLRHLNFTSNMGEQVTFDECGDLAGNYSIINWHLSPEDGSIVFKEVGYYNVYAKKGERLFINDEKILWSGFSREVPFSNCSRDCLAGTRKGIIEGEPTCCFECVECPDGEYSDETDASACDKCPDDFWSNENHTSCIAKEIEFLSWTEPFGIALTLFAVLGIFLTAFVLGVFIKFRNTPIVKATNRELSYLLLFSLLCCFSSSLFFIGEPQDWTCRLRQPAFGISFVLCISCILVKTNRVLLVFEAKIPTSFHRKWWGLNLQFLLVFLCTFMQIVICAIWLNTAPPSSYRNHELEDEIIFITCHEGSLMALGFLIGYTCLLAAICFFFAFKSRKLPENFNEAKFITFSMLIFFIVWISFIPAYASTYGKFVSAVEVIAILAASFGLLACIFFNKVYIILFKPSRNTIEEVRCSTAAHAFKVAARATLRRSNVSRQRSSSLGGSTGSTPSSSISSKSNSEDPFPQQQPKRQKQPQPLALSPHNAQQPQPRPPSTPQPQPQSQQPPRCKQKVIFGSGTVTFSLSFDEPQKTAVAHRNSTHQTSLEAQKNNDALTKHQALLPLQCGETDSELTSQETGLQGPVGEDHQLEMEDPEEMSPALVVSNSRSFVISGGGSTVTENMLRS
Protocol: For example,.bovine parathyroid cells loaded with fura-2 are initially suspended in buffer containing 0.5 mM CaCl2. A test substance is added to the cuvette in a small volume (5-15 μl) and changes in the fluorescence signal are measured. Cumulative increases in the concentration of the test substance are made in the cuvette until some predetermined concentration is achieved or no further changes in fluorescence are noted.
This section describes procedures used to obtain and treat parathyroid cells from calves and humans. […] Human parathyroid glands, were obtained from patients undergoing surgical removal of parathyroid tissue for primary or uremic hyperparathyroidism (uremic HPT), and were treated similarly to bovine tissue.
Glands were trimmed of excess fat and connective tissue and then minced with fine scissors into cubes approximately 2-3 mm on a side. Dissociated parathyroid cells were prepared by collagenase digestion and then purified by centrifugation in Percoll buffer. The resultant parathyroid cell preparation was essentially devoid of red blood cells, adipocytes, and capillary tissue as assessed by phase contrast microscopy and Sudan black B staining. Dissociated and purified parathyroid cells were present as small clusters containing 5 to 20 cells.
The cells were then transferred to plastic flasks (75 or 150 cm^2 ; Falcon) and incubated overnight at 37° C. in a humid atmosphere of 5% CO2. No serum is added to these overnight cultures, since its presence allows the cells to attach to the plastic, undergo proliferation, and dedifferentiate. Cells cultured under the above conditions were readily removed from the flasks by decanting, and show the same viability as freshly prepared cells.
The cells were then pelleted, resuspended in the same buffer, but lacking the ester, and incubated a further 15 minutes at 37° C. The cells were subsequently washed twice with PCB containing 0.5 mM CaCl2 and 0.5% BSA and maintained at room temperature (about 20° C.). Immediately before use, the cells were diluted five-fold with prewarmed 0.5mM CaCl2 -PCB to obtain a final BSA concentration of 0.1%. The concentration of cells in the cuvette used for fluorescence recording was 1-2×10^6 /ml.
The fluorescence of indicator-loaded cells was measured at 37° C. in a spectrofluorimeter (Biomedical Instrumentation Group, University of Pennsylvania, Philadelphia, Pa.) equipped with a thermostated cuvette holder and magnetic stirrer using excitation and emission wavelengths of 340 and 510 nm, respectively. […] Leakage of dye is dependent on temperature and most occurs within the first 2 minutes after warming the cells in the cuvette. Dye leakage increases only very slowly thereafter. To correct the calibration for dye leakage, cells were placed in the cuvette and stirred at 37° C. for 2-3 minutes. The cell suspension was then removed, the cells pelleted, and the supernatant returned to a clean cuvette. […] This estimate was subtracted from the apparent Fmin.
Dissociated bovine parathyroid cells were purified on gradients of Percoll and cultured overnight in serum-free medium. […] That is,

[6] = serum/plasma Ca^2+, PTH and calcitonin in rats, oral; type: in vivo; settings: rat, single oral dose, 3 hours
From the text: Rats (male, Sprague-Dawley, 250-300 g) were fed standard rat chow and fasted overnight prior to the experiment. NPS R-467 was suspended in corn oil and administered as a single oral dose through a gavage needle. Three hours later a sample of blood was taken from the tail vein and assessed for ionized Ca^2+ levels.

[7] = biological target: T2, human parathyroid cell calcium receptor (Homo sapiens, UniProt P41180); experiment: Cl^- current in Xenopus oocytes expressing cloned human parathyroid calcium receptor; type: cell-based; settings: pHuPCaR 5.2 and 4.0
T2 construct: cRNA injected in Xenopus oocytes
T2 sequence (P41180 20-1078 R990G/E1011Q): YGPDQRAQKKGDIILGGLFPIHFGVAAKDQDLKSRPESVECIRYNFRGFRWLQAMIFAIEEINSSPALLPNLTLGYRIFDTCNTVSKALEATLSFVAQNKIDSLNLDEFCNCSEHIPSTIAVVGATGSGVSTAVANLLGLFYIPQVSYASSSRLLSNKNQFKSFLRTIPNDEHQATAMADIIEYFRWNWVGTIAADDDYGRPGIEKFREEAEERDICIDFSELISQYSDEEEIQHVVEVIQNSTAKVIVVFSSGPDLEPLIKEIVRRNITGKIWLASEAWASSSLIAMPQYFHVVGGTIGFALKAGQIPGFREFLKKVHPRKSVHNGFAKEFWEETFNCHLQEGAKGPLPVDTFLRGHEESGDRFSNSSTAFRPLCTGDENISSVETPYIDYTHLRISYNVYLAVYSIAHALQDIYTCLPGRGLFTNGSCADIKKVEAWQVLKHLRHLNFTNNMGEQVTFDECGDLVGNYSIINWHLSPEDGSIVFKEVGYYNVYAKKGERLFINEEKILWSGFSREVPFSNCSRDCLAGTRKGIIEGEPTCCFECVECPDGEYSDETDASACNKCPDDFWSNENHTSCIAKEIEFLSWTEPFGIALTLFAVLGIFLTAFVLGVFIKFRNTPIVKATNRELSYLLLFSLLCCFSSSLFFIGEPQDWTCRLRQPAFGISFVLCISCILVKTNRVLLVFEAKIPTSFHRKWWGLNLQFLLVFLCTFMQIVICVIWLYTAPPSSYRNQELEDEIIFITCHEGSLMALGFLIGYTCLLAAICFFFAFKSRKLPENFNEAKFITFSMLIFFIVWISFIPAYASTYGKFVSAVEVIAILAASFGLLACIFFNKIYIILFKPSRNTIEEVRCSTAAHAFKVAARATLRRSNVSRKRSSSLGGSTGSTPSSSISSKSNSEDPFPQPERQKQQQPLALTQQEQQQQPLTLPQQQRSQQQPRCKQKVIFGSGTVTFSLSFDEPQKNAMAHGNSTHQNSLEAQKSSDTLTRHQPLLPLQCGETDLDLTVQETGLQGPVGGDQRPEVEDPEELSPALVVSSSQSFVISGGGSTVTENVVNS
Protocol: Representative cDNA inserts for both size classes were subcloned into the plasmid vector pBluescript SK. Linearization followed by in vitro transcription using T7 RNA polymerase produced cRNA transcripts. The cRNA transcripts were injected into Xenopus oocytes (150 ng/μl RNA; 50 nl/oocyte) for functional analysis. Following incubation periods of 2-4 days, the oocytes were assayed for the presence of functional calcium receptors. Both clone types gave rise to functional calcium receptors as assessed by the stimulation of calcium-activated chloride currents upon addition of appropriate calcium receptor agonists. […] Thus, both clones encode a functional, human parathyroid cell calcium receptor.
Xenopus oocytes were injected with pHuPCaR 5.2, the 5.2 Kb cDNA encoding a parathyroid cell calcium receptor derived from a human parathyroid cell adenoma. (See Example 27.) After two to three days, Cl^- currents were measured in the oocytes using a two-electrode voltage clamp.

COc1cccc([C@@H](C)NCCCc2ccccc2)c1 [NPS R-467, (R)-(+)-N-(3-phenylpropyl)-α-methyl-3-methoxybenzylamine]
Cl^- current in oocytes [1]: rapid increase | change in serum ionized Ca^2+ [2]: did not cause any change | decrease in serum ionized Ca^2+ from control level [3]: 22% | increase in intracellular calcium [4]: Robust increases in intracellular calcium | [Ca^2+]i response in presence of 0.5 mM extracellular Ca^2+ [5]: rapid and transient increase in [Ca^2+ ]i | [Ca^2+]i response in Ca^2+-free buffer after 10 μM neomycin ([5]; 30 μM NPS R-467): transient increase in [Ca^2+ ]i | [Ca^2+]i response in Ca^2+-free buffer after 100 μM neomycin ([5]; 30 μM NPS R-467): did not cause an increase in [Ca^2+ ]i | [Ca^2+]i response in Ca^2+-free buffer ([5]; no extracellular Ca^2+, NPS R-467 30 μM): abolished; also recorded: no increase in [Ca^2+ ]i | reduction in serum ionized Ca^2+ [6]: dose-dependent reduction in serum levels of ionized Ca^2+ | activation of oocyte-expressed human receptor [7]: activated the oocyte-expressed receptor at about the same concentrations
